Patent US20200131156A1, “ARYLSULFONYLPYROLECARBOXAMIDE DERIVATIVES AS Kv3 POTASSIUM CHANNEL ACTIVATORS” (H. Lundbeck A/S, priority 2018, published 2020)

Biological target: T1, hKv3.1b (Homo sapiens, UniProt P48547)
T1 construct: expressed in transfected cells
T1 sequence (P48547 1-585 isoform P48547-2): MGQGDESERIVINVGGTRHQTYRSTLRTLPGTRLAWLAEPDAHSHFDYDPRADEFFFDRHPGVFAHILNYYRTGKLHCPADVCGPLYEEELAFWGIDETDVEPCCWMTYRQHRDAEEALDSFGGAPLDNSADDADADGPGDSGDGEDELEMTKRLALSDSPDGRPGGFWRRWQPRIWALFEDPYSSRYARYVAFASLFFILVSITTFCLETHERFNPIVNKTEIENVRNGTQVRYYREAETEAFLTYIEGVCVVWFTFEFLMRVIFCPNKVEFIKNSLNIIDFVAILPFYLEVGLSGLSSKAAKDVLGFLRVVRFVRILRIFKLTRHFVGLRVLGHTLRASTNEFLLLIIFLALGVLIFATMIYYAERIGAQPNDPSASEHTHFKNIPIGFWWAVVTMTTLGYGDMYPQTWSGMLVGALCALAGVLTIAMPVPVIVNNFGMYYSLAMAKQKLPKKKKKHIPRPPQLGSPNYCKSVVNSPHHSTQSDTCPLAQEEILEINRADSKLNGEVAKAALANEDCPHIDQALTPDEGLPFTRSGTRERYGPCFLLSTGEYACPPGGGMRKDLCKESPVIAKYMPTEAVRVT
Assay: Automated patch clamp (QPatch-16x) on HEK-293 cells stably expressing hKv3.1b
Type: cell-based
Details: for ECdelta5 mV: concentration needed to shift the activation threshold 5 mV; for Threshold Shift: maximum absolute hyperpolarizing shift of activation threshold at tested concentrations 0.37-30 μM
Procedure: HEK-293 cells stably expressing hKv3.1b were used for the experiments. Cells were cultured in DMEM medium supplemented with 10% Fetal Bovine Serum, 100 ug/mL Geneticidin and 100 u/mL Penicillin/Streptomycin (all from Gibco). Cells were grown to 80-90% confluency at 37° C. and 5% CO2. On the day of the experiment the cells were detached from the tissue culture flasks by Detachin, resuspended in serum free medium containing 25 mM HEPES and transferred to the cell hotel of the QPatch. The cells were used for experiments 0-5 hours after detachment.
Patch-clamp recordings were performed using the automated recording system QPatch-16x (Sophion Bioscience, Denmark). Cells were centrifuged, SFM removed and the cells were resuspended in extracellular buffer containing (in mM): 145 NaCl, 4 KCl, 1 MgCl2, 2 CaCl2, 10 HEPES and 10 glucose (added fresh on the day of experiment); pH 7.4 adjusted with NaOH, 305 mOsm adjusted with sucrose.
Single cell whole-cell recordings were carried out using an intracellular solution containing (in mM): 120 KCl, 32.25/10 KOH/EGTA, 5.374 CaCl2, 1.75 MgCl2, 10 HEPES, 4 Na2ATP (added fresh on the day), pH 7.2 adjusted with KOH, […] adjusted with sucrose. Cell membrane potentials were held at −80 mV and currents were evoked by voltage steps (200 ms duration) from −70 mV to +10 mV (in 10 mV increments). Vehicle (0.33% DMSO) or increasing concentration of compound (I) were applied and the voltage protocol was run 3 times (resulting in 3 min cpd incubation time). Five increasing concentrations of compound (I) were applied to each cell.
Leak subtraction protocol was applied at −33% of the sweep amplitude, and serial resistance values were constantly monitored.
Any cell where serial resistance exceeded 25 MOhm, membrane resistance less than 200 MOhm or current size at −10 mV less than 200 pA was eliminated from the subsequent analysis.
Data analysis was performed using Sophion's QPatch assay software in combination with Microsoft Excel™ (Redmond, Wash., USA). Current voltage relationships were plotted from the peak current at the individual voltage steps normalized to the vehicle addition at 10 mV. The voltage threshold for channel activation was defined as 5% activation of the peak current at 10 mV in presence of vehicle. The activity of the compounds was described as the ability to shift this current voltage relationship to more hyperpolarized potentials and is given as the maximum absolute shift possible at the tested concentrations (0.37, 1.11, 3.33, 10, 30 μM). Concentration response curves were plotted from the threshold shift at the individual concentrations and were fitted excel fit model 205 sigmoidal dose-response model (fit=A+((B−A)/1+((C/x)^D)))), where A is the minimum value, B the maximum value, C the EC50 value and D the slope of the curve. The concentration needed to shift the threshold 5 mV was readout from this curve (ECdelta5 mV).

Cc1cnc(CNC(=O)c2ccn(S(=O)(=O)c3ccc(C(F)(F)F)cc3)c2)cn1 [Compound 91, N-[(5-methylpyrazin-2-yl)methyl]-1-[4-(trifluoromethyl)benzene-1-sulfonyl]-1H-pyrrole-3-carboxamide] was tested, and the “ECdelta5 mV” value was 1800 nM and the “Threshold Shift” value was 20 mV.

COc1ccc(S(=O)(=O)n2ccc(C(=O)NCc3cnc(C)cn3)c2)c(Cl)c1 [Compound 104, 1-(2-chloro-4-methoxy-phenyl)sulfonyl-N-[(5-methylpyrazin-2-yl)methyl]pyrrole-3-carboxamide] was tested, and the “ECdelta5 mV” value was 1000 nM and the “Threshold Shift” value was 31 mV.

Cc1cnc(CNC(=O)c2ccn(S(=O)(=O)c3ccc(F)c(Cl)c3)c2)cn1 [Compound 92, 1-(3-chloro-4-fluorobenzene-1-sulfonyl)-N-[(5-methylpyrazin-2-yl)methyl]-1H-pyrrole-3-carboxamide] was tested, and the “ECdelta5 mV” value was 3400 nM and the “Threshold Shift” value was 12 mV.

With Cc1cnc(CNC(=O)c2ccn(S(=O)(=O)c3ccccc3F)c2)cn1 [Compound 4, 1-(2-fluorophenyl)sulfonyl-N-[(5-methylpyrazin-2-yl)methyl]pyrrole-3-carboxamide] the “ECdelta5 mV” value was 3100 nM and the “Threshold Shift” value was 17 mV.

COc1ccc(S(=O)(=O)n2ccc(C(=O)NCc3ccn(C)n3)c2)c(Cl)c1 [Compound 117, 1-(2-chloro-4-methoxybenzene-1-sulfonyl)-N-[(1-methyl-1H-pyrazol-3-yl)methyl]-1H-pyrrole-3-carboxamide] was tested, and the “ECdelta5 mV” value was 1500 nM and the “Threshold Shift” value was 21 mV.

In the case of Cc1ccc(S(=O)(=O)n2cc(C)c(C(=O)NCc3cnc(C)cn3)c2)cc1 [Compound 8, 4-methyl-N-[(5-methylpyrazin-2-yl)methyl]-1-(p-tolylsulfonyl)pyrrole-3-carboxamide], the “ECdelta5 mV” value is reported as 4000 nM and the “Threshold Shift” value is reported as 12 mV.

For Cc1ccc(S(=O)(=O)n2ccc(C(=O)NCc3cc(C)no3)c2)cc1 [Compound 35, N-[(3-methylisoxazol-5-yl)methyl]-1-(p-tolylsulfonyl) pyrrole-3-carboxamide], the “ECdelta5 mV” value was 1100 nM and the “Threshold Shift” value was 21 mV.

For Cc1ccc(S(=O)(=O)n2ccc(C(=O)NCc3ncc(C)s3)c2)cc1 [Compound 39, N-[(5-methylthiazol-2-yl)methyl]-1-(p-tolylsulfonyl)pyrrole-3-carboxamide], the “ECdelta5 mV” value was 1600 nM and the “Threshold Shift” value was 17 mV.

In the case of Cc1ccccc1S(=O)(=O)n1ccc(C(=O)NCc2ccn(C)n2)c1 [Compound 74, 1-(2-methylbenzene-1-sulfonyl)-N-[(1-methyl-1H-pyrazol-3-yl)methyl]-1H-pyrrole-3-carboxamide], the “ECdelta5 mV” value is reported as 2100 nM and the “Threshold Shift” value is reported as 21 mV.

In the case of COc1ccc(S(=O)(=O)n2ccc(C(=O)NCc3ncc(C)o3)c2)cc1 [Compound 73, 1-(4-methoxybenzene-1-sulfonyl)-N-[(5-methyl-1,3-oxazol-2-yl)methyl]-1H-pyrrole-3-carboxamide], the “ECdelta5 mV” value is reported as 2100 nM and the “Threshold Shift” value is reported as 13 mV.

COc1ccc(S(=O)(=O)n2ccc(C(=O)NCc3ccn(C)n3)c2)cc1 [Compound 66, 1-(4-methoxybenzene-1-sulfonyl)-N-[(1-methyl-1H-pyrazol-3-yl)methyl]-1H-pyrrole-3-carboxamide] was tested, and the “ECdelta5 mV” value was 1400 nM and the “Threshold Shift” value was 18 mV.

With COc1ccc(S(=O)(=O)n2ccc(C(=O)NCc3cnn(C)c3)c2)cc1 [Compound 69, 1-(4-methoxybenzene-1-sulfonyl)-N-[(1-methyl-1H-pyrazol-4-yl)methyl]-1H-pyrrole-3-carboxamide] the “ECdelta5 mV” value was 3000 nM and the “Threshold Shift” value was 18 mV.

With O=C(NCc1cnccn1)c1ccn(S(=O)(=O)c2ccc(F)cc2)c1 [Compound 64, 1-(4-fluorobenzene-1-sulfonyl)-N-[(pyrazin-2-yl)methyl]-1H-pyrrole-3-carboxamide] the “ECdelta5 mV” value was 4400 nM and the “Threshold Shift” value was 13 mV.

In the case of Cc1ccc(S(=O)(=O)n2ccc(C(=O)NCc3ccn(C)n3)c2)cc1 [Compound 36, N-[(1-methylpyrazol-3-yl)methyl]-1-(p-tolylsulfonyl) pyrrole-3-carboxamide], the “ECdelta5 mV” value is reported as 810 nM and the “Threshold Shift” value is reported as 27 mV.

Cc1ccccc1S(=O)(=O)n1ccc(C(=O)NCc2cnn(C)c2)c1 [Compound 76, 1-(2-methylbenzene-1-sulfonyl)-N-[(1-methyl-1H-pyrazol-4-yl)methyl]-1H-pyrrole-3-carboxamide] was tested, and the “ECdelta5 mV” value was 3600 nM and the “Threshold Shift” value was 17 mV.

For Cc1cnc(CNC(=O)c2ccn(S(=O)(=O)c3ccccc3)c2)c(C)n1 [Compound 111, 1-(benzenesulfonyl)-N-[(3,5-dimethylpyrazin-2-yl)methyl]-1H-pyrrole-3-carboxamide], the “ECdelta5 mV” value was 2900 nM and the “Threshold Shift” value was 21 mV.

In the case of Cc1ccc(S(=O)(=O)n2ccc(C(=O)NCc3ccc(C)nc3)c2)cc1 [Compound 26, N-[(6-methyl-3-pyridyl)methyl]-1-(p-tolylsulfonyl)pyrrole-3-carboxamide], the “ECdelta5 mV” value is reported as 930 nM and the “Threshold Shift” value is reported as 22 mV.

Cc1cnc(CNC(=O)c2ccn(S(=O)(=O)c3ccc(C(F)F)cc3)c2)cn1 [Compound 93, 1-[4-(difluoromethyl)benzene-1-sulfonyl]-N-[(5-methylpyrazin-2-yl)methyl]-1H-pyrrole-3-carboxamide] was tested, and the “ECdelta5 mV” value was 1500 nM and the “Threshold Shift” value was 34 mV.

For COc1ccc(S(=O)(=O)n2ccc(C(=O)NCc3cnc(C)cn3)c2)c(F)c1 [Compound 96, 1-(2-fluoro-4-methoxy-phenyl)sulfonyl-N-[(5-methylpyrazin-2-yl)methyl]pyrrole-3-carboxamide], the “ECdelta5 mV” value was 1300 nM and the “Threshold Shift” value was 35 mV.

With Cc1ccc(S(=O)(=O)n2ccc(C(=O)NCc3cnc(C)s3)c2)cc1 [Compound 114, 1-(4-methylbenzene-1-sulfonyl)-N-[(2-methyl-1,3-thiazol-5-yl)methyl]-1H-pyrrole-3-carboxamide] the “ECdelta5 mV” value was 1600 nM and the “Threshold Shift” value was 15 mV.

For COc1ccc(S(=O)(=O)n2ccc(C(=O)NCc3ccc(C)cn3)c2)cc1 [Compound 70, 1-(4-methoxybenzene-1-sulfonyl)-N-[(5-methylpyridin-2-yl)methyl]-1H-pyrrole-3-carboxamide], the “ECdelta5 mV” value was 1100 nM and the “Threshold Shift” value was 17 mV.

For COc1ccc(S(=O)(=O)n2ccc(C(=O)NCc3cnc(C)cn3)c2)cc1F [Compound 97, 1-(3-fluoro-4-methoxy-phenyl)sulfonyl-N-[(5-methylpyrazin-2-yl)methyl]pyrrole-3-carboxamide], the “ECdelta5 mV” value was 3200 nM and the “Threshold Shift” value was 18 mV.

In the case of Cc1ccc(S(=O)(=O)n2ccc(C(=O)NCc3cnn(C)n3)c2)cc1 [Compound 109, 1-(4-methylbenzene-1-sulfonyl)-N-[(2-methyl-2H-1,2,3-triazol-4-yl)methyl]-1H-pyrrole-3-carboxamide], the “ECdelta5 mV” value is reported as 1200 nM and the “Threshold Shift” value is reported as 29 mV.

Cc1cnc(CNC(=O)c2ccn(S(=O)(=O)c3cccc(C)c3)c2)nc1 [Compound 62, 1-(3-methylbenzene-1-sulfonyl)-N-[(5-methylpyrimidin-2-yl)methyl]-1H-pyrrole-3-carboxamide] was tested, and the “ECdelta5 mV” value was 4900 nM and the “Threshold Shift” value was 12 mV.

With Cc1cccc(S(=O)(=O)n2ccc(C(=O)NCc3cnc(C)cn3)c2)c1 [Compound 30, N-[(5-methylpyrazin-2-yl)methyl]-1-(m-tolylsulfonyl)pyrrole-3-carboxamide] the “ECdelta5 mV” value was 2500 nM and the “Threshold Shift” value was 17 mV.
